Experimental data reported in ChEMBL document CHEMBL1629537, “Non-natural macrocyclic inhibitors of histone deacetylases: design, synthesis, and activity” (J Med Chem, 2010).

Columns and labels:
[1] = molecular target: Histone deacetylase 5 (Homo sapiens, UniProt Q9UQL6); assay: Inhibition of human HDAC5 by fluorimetric assay
[2] = molecular target: T1, Polyamine deacetylase HDAC10 (Homo sapiens, UniProt Q969S8); assay: Inhibition of human HDAC10 by fluorimetric assay
T1 sequence (Q969S8 whole entry): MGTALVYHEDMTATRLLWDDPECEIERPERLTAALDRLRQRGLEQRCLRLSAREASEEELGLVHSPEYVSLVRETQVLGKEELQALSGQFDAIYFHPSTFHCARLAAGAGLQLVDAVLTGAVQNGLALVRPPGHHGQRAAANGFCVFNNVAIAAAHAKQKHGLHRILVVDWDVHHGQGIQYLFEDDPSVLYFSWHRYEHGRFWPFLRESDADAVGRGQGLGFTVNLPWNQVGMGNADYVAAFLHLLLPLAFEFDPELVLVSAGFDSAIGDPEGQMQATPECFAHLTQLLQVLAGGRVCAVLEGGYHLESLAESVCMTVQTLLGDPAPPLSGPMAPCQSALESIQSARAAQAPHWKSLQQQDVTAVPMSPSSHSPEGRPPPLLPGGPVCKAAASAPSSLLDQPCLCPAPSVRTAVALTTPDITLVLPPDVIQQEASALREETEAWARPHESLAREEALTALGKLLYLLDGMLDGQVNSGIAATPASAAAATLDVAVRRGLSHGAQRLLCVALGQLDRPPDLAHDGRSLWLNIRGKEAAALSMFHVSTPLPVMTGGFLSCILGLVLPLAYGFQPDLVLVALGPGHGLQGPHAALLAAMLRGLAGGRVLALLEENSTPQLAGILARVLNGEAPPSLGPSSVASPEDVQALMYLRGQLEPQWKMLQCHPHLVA

[3] = molecular target: Histone deacetylase 1 (Homo sapiens, UniProt Q13547); assay: Inhibition of human HDAC1 by fluorimetric assay
Histone deacetylase 1, sequence (Q13547 whole entry): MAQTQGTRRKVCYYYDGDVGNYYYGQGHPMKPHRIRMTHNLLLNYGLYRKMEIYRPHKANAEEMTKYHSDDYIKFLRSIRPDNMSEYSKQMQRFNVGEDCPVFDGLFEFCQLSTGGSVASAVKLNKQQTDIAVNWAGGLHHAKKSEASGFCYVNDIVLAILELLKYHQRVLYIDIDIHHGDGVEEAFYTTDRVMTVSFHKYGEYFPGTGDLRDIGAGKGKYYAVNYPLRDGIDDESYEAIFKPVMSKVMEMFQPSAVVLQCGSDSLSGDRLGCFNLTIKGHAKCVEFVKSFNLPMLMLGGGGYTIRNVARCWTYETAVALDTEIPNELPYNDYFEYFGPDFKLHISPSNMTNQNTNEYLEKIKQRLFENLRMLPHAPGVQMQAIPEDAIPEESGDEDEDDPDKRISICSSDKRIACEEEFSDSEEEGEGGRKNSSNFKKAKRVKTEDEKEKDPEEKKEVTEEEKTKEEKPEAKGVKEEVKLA

[4] = molecular target: T2, Histone deacetylase 8 (Homo sapiens, UniProt Q9BY41); assay: Inhibition of human HDAC8 by fluorimetric assay
T2 sequence (Q9BY41 whole entry): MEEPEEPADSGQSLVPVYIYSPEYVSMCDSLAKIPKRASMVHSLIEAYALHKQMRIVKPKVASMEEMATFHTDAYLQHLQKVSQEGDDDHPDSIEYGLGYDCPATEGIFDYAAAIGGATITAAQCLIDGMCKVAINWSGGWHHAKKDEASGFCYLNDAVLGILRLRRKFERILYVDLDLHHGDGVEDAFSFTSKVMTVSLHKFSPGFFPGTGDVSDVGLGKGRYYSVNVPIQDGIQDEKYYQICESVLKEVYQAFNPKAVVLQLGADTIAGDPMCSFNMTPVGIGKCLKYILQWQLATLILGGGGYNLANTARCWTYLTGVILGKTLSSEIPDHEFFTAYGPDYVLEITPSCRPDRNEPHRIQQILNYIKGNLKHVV

[5] = molecular target: Histone deacetylase 2 (Homo sapiens, UniProt Q92769)
Histone deacetylase 2, sequence (Q92769 whole entry): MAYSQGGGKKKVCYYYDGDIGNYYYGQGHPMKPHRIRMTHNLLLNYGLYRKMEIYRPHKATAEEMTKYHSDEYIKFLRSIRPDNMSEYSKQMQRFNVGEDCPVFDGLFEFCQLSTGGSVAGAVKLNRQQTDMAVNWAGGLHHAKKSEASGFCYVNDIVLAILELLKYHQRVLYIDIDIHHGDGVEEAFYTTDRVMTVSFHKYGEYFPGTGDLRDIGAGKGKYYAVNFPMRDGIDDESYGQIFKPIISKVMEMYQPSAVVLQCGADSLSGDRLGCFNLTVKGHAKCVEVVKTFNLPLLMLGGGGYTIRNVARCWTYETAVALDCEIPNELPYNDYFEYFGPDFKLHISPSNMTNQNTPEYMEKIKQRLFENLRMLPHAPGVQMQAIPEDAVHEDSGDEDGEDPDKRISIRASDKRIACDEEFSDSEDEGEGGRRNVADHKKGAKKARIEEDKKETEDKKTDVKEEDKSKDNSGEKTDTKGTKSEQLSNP

[6] = molecular target: Histone deacetylase 4 (Homo sapiens, UniProt P56524); assay: Inhibition of human HDAC4 by fluorimetric assay
Histone deacetylase 4, sequence (P56524 whole entry): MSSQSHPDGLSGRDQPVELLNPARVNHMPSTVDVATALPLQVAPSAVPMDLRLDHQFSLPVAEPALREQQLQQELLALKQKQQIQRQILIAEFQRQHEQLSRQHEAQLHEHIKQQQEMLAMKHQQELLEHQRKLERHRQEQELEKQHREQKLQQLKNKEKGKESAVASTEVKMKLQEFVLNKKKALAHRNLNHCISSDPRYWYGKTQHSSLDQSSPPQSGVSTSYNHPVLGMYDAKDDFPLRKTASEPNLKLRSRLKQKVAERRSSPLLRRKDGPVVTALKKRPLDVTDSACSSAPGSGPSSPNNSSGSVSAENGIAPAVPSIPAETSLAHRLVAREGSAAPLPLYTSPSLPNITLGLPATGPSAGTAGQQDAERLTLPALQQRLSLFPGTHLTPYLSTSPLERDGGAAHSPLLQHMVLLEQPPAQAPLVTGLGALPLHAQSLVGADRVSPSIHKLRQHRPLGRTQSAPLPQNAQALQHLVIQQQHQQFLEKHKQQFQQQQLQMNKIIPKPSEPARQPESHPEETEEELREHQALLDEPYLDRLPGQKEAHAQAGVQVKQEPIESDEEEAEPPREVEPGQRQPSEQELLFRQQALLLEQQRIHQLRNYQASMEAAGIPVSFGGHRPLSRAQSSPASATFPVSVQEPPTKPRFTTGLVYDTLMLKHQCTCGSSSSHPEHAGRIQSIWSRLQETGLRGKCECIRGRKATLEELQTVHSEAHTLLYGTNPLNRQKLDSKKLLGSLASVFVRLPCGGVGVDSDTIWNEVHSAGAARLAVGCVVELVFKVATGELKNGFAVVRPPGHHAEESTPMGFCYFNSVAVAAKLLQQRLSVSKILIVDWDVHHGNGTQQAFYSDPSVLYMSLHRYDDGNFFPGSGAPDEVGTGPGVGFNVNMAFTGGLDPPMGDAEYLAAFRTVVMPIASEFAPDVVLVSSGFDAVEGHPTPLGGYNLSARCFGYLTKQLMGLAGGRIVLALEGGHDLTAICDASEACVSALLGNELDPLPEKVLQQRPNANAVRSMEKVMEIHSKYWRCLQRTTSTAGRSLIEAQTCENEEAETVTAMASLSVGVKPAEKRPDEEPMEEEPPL

[7] = molecular target: Histone deacetylase 3 (Homo sapiens, UniProt O15379)
Histone deacetylase 3, sequence (O15379 whole entry): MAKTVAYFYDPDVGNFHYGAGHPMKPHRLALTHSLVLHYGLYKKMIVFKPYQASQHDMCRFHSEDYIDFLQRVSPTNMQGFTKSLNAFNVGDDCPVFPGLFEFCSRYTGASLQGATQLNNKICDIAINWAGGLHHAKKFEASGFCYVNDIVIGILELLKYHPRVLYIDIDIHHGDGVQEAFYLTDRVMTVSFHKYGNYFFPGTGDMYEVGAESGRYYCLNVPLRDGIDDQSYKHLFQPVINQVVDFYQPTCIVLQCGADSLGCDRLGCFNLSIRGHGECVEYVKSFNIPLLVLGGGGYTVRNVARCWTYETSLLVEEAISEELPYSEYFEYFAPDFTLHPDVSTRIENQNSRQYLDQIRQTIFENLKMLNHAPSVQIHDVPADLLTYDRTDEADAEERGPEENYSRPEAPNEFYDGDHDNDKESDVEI

[8] = test system: HCT-116; assay: cells; assay type: functional, cell-based; conditions: Homo sapiens, HCT-116, 48 h
[9] = molecular target: T3, Histone deacetylase 7 (Homo sapiens, UniProt Q8WUI4); assay: Inhibition of human HDAC7 by fluorimetric assay
T3 sequence (Q8WUI4 whole entry): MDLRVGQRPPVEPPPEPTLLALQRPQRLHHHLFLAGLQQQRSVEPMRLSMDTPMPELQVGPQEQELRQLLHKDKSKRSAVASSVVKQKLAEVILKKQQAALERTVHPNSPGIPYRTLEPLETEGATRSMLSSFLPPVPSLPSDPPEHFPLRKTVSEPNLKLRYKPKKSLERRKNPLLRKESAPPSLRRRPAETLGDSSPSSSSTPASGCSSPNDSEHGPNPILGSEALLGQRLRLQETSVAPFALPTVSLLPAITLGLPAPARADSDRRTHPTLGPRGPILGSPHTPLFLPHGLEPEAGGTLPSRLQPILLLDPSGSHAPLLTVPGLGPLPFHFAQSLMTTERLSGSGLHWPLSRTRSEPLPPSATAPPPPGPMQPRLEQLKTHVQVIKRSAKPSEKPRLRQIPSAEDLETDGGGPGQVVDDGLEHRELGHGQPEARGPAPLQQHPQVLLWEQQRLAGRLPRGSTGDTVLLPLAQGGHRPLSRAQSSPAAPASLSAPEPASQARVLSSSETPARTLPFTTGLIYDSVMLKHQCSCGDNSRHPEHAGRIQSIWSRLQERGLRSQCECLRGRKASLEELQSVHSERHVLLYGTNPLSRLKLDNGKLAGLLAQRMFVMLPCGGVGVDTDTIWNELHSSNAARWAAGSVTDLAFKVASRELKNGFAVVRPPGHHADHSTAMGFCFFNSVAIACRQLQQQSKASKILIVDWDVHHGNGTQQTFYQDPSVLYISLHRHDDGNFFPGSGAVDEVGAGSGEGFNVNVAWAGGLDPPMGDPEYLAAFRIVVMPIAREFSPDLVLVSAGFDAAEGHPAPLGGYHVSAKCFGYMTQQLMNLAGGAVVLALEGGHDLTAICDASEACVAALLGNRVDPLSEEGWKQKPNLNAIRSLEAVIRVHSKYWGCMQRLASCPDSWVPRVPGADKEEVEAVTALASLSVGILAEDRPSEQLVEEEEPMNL

[10] = molecular target: T4, Histone deacetylase 11 (Homo sapiens, UniProt Q96DB2); assay: Inhibition of human HDAC11 by fluorimetric assay
T4 sequence (Q96DB2 whole entry): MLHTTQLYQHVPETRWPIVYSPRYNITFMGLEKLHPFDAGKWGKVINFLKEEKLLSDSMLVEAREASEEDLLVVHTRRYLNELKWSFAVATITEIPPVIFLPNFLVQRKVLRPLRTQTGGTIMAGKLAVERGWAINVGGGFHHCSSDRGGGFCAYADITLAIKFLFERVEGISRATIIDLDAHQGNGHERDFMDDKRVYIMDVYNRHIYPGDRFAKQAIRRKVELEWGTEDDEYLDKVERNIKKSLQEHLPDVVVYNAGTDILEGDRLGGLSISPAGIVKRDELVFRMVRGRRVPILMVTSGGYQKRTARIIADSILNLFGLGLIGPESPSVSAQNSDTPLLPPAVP

[11] = molecular target: Histone deacetylase 9 (Homo sapiens, UniProt Q9UKV0); assay: Inhibition of human HDAC9 by fluorimetric assay
Histone deacetylase 9, sequence (Q9UKV0 whole entry): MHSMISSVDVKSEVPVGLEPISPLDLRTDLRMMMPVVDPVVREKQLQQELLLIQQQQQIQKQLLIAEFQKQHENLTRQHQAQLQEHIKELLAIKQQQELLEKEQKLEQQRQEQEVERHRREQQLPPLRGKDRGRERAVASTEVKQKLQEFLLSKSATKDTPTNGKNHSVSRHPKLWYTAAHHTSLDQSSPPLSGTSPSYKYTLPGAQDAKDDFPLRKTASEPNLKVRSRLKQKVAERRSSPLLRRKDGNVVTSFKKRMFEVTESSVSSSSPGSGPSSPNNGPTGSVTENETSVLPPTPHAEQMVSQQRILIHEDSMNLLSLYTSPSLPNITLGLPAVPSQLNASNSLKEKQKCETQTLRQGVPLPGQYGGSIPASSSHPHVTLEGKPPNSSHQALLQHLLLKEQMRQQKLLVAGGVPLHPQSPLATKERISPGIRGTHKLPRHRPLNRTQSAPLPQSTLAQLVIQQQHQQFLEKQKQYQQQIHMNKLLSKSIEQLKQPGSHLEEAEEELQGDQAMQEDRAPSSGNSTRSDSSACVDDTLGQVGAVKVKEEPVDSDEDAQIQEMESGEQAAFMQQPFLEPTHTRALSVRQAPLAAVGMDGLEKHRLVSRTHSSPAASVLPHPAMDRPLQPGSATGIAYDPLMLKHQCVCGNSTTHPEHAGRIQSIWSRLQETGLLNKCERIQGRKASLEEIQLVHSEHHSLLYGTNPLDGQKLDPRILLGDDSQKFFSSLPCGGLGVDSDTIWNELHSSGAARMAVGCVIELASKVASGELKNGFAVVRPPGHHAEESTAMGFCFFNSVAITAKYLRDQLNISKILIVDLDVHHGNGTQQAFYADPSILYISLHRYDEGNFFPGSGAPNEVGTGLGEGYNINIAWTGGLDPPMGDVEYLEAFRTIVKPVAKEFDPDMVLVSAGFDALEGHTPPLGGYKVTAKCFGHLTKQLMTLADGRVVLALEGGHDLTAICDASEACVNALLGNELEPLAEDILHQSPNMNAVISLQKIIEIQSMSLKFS

[12] = molecular target: T5, Protein deacetylase HDAC6 (Homo sapiens, UniProt Q9UBN7); assay: Inhibition of human HDAC6 by fluorimetric assay
T5 sequence (Q9UBN7 whole entry): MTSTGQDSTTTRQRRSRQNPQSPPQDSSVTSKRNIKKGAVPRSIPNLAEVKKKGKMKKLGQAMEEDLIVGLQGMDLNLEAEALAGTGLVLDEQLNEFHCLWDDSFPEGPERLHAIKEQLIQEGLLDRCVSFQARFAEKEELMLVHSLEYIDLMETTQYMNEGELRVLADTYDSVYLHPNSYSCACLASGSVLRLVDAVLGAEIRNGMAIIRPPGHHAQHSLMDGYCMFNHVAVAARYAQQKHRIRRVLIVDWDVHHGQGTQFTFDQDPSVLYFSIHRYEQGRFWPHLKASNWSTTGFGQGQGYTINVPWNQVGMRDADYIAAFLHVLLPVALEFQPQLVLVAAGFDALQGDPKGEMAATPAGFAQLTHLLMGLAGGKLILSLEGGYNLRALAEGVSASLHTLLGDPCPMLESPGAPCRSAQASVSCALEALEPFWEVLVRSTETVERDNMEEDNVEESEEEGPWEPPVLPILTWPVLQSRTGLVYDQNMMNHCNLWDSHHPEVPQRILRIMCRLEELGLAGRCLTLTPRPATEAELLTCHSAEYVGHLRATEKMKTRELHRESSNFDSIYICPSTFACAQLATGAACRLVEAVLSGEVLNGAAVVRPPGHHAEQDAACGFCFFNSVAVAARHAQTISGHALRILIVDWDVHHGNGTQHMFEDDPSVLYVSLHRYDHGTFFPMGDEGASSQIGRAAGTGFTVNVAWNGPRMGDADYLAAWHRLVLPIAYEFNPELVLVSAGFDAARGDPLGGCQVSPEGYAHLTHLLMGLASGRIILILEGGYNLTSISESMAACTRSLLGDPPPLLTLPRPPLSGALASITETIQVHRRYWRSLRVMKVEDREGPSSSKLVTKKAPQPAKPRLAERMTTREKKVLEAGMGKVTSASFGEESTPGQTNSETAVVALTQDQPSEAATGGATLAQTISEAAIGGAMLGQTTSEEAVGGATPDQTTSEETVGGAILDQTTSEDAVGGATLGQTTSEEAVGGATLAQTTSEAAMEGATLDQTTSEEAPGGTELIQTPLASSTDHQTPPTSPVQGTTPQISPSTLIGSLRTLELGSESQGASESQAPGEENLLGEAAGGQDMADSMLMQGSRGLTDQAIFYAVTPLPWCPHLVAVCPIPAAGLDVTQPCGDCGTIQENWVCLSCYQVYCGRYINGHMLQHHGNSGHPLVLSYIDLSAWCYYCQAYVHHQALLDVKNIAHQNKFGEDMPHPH

[13] = test system: NCI-H460; assay: cells; assay type: functional, cell-based; conditions: Homo sapiens, NCI-H460, 48 h

Histone deacetylase 5, sequence (Q9UQL6 whole entry): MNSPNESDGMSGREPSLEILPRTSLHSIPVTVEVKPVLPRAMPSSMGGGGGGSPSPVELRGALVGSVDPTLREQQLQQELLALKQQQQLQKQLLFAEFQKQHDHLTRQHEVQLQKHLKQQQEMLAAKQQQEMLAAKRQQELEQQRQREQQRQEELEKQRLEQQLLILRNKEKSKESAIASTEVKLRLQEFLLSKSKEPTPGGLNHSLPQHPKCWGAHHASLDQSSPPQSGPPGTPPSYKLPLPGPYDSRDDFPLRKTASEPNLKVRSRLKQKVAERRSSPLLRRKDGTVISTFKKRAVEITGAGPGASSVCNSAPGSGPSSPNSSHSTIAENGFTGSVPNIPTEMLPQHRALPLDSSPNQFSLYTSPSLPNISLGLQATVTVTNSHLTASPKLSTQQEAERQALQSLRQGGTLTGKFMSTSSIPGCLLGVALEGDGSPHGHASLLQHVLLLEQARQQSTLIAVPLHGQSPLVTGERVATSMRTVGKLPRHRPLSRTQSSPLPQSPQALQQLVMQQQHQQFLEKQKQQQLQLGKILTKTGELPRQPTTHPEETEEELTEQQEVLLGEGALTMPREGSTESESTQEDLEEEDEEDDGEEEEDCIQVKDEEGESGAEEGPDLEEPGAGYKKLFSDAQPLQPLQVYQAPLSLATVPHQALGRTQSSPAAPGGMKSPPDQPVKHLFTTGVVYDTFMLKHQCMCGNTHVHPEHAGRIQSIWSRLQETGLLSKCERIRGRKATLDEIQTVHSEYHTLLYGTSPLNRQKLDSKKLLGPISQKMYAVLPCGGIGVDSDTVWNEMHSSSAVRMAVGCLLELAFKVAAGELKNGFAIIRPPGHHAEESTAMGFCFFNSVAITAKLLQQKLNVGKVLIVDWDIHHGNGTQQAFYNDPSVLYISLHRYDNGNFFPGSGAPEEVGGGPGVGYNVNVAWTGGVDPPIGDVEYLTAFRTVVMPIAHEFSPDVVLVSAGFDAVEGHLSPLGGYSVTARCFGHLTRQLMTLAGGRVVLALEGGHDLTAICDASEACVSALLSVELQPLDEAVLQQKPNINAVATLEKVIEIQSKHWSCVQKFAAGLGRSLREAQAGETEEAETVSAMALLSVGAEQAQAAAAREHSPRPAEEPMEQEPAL

Compound: COc1cc2cc(c1)COc1ccccc1NC(=O)[C@H](CCCCCC(=O)NO)OC/C=C\2
- IC50 [1]: 62.2 nM
- IC50 [2]: 62.5 nM
- IC50 [3]: 31.7 nM
- IC50 [4]: 198 nM
- IC50 [5]: 158 nM
- IC50 [6]: 79.4 nM
- IC50 [7]: 55.7 nM
- IC50 [8]: 690 nM
- IC50 [9]: 27.8 nM
- IC50 [10]: 22.9 nM
- IC50 [11]: 60.6 nM
- IC50 [12]: 0.84 nM
- IC50 [13]: 1050 nM

Compound: COc1cc2cc(c1)COc1ccccc1NC(=O)[C@@H](CCCCCC(=O)NO)OC/C=C\2
- IC50 [1]: 155 nM
- IC50 [2]: 152 nM
- IC50 [3]: 78.1 nM
- IC50 [4]: 206 nM
- IC50 [5]: 382 nM
- IC50 [6]: 284 nM
- IC50 [7]: 89 nM
- IC50 [8]: 640 nM
- IC50 [9]: 180 nM
- IC50 [10]: 97.1 nM
- IC50 [11]: 302 nM
- IC50 [12]: 10.2 nM
- IC50 [13]: 820 nM

Compound: COc1cc2cc(c1)COc1ccccc1NC(=O)[C@H](CCCCCC(=O)NO)OCCC2
- IC50 [1]: 109 nM
- IC50 [2]: 190 nM
- IC50 [3]: 72.2 nM
- IC50 [4]: 136 nM
- IC50 [5]: 268 nM
- IC50 [6]: 118 nM
- IC50 [7]: 93.6 nM
- IC50 [8]: 520 nM
- IC50 [10]: 103 nM
- IC50 [11]: 123 nM
- IC50 [12]: 3.43 nM
- IC50 [13]: 740 nM

Compound: COc1cc2cc(c1)COc1ccccc1NC(=O)[C@@H](CCCCCC(=O)NO)OCCC2
- IC50 [1]: 150 nM
- IC50 [2]: 200 nM
- IC50 [3]: 102 nM
- IC50 [4]: 90.7 nM
- IC50 [5]: 425 nM
- IC50 [6]: 454 nM
- IC50 [7]: 94.5 nM
- IC50 [8]: 850 nM
- IC50 [10]: 174 nM
- IC50 [11]: 322 nM
- IC50 [12]: 3.92 nM
- IC50 [13]: 680 nM

Compound: O=C(CCCCCC1OCCCCCOc2ccccc2NC1=O)NO (racemic)
- IC50 [1]: 1340 nM
- IC50 [2]: 1530 nM
- IC50 [3]: 949 nM
- IC50 [4]: 643 nM
- IC50 [5]: 1930 nM
- IC50 [6]: 2580 nM
- IC50 [7]: 369 nM
- IC50 [8]: 690 nM
- IC50 [9]: 1720 nM
- IC50 [10]: 1210 nM
- IC50 [11]: 1900 nM
- IC50 [12]: 15.6 nM
- IC50 [13]: 2000 nM

Compound: O=C(CCCCCC1OCCCCCCOc2ccccc2NC1=O)NO (racemic)
- IC50 [1]: 878 nM
- IC50 [2]: 683 nM
- IC50 [3]: 560 nM
- IC50 [4]: 1100 nM
- IC50 [5]: 1570 nM
- IC50 [6]: 1200 nM
- IC50 [7]: 176 nM
- IC50 [8]: 580 nM
- IC50 [10]: 564 nM
- IC50 [11]: 687 nM
- IC50 [12]: 10.1 nM
- IC50 [13]: 1000 nM
